Series [1] is described as follows: Solubility test at 10 mg/mL (visual inspection and light scattering). Conditions: for Solubility, Condition 1 Acetate pH 4: 10 mg/mL compound in 100 mM acetate pH 4; for Solubility, Condition 2 Acetate pH 5: 10 mg/mL compound in 100 mM acetate pH 5; for Solubility, Condition 3 Phosphate pH 6: 10 mg/mL compound in 100 mM phosphate pH 6; for Solubility, Condition 4 Phosphate pH 7: 10 mg/mL compound in 100 mM phosphate pH 7; for Solubility, Condition 5 Phosphate pH 7.5: 10 mg/mL compound in 100 mM phosphate pH 7.5. The series is classed as physicochemical.

Series [2] relates to classical complement pathway. The series can be described thus: In vitro haemolysis assay (inhibition of classical complement pathway). The series is classed as cell-based, human. To be noted: Table 3; human serum, sensitized sheep red blood cells; read-out: IC50[nM], in vitro analysis of inhibition of hemolysis. Summed up:
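Serially diluted compound (9 points) was preincubated 15 min at room temperature with diluted human serum, titrated per batch to give 70-90% maximal haemolysis, in Tris/casein buffer pH 7.4 with Mg2+/Ca2+. Antibody-sensitized sheep erythrocytes were then added for 30 min at 37° C, and the reaction was stopped with EDTA. Haemolysis was read at A405, with IC50 from 4PL fit.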

Positions of bridges follow the written chain, without caps; N, C: chain ends. Non-standard residues stand in square brackets, D forms with d. Residues, ends and D or L forms follow the SMILES beside them. Sar = CNCC(=O)O A value given as a limit tells only on which side of the number the result lay.

What is called IC50 is the concentration that gives 50% inhibition. Turning to `CC[C@H](C)[C@H](NC(C)=O)C(=O)N[C@H]1CSSC[C@@H](C(=O)N[C@@H](CCC(=O)O)C(=O)NCC(=O)N[C@@H](CCC(=O)O)C(N)=O)NC(=O)[C@H](CCCNC(=N)N)NC(=O)[C@H](Cc2c[nH]cn2)NC(=O)[C@H](CCC(=O)O)NC(=O)CNC(=O)[C@H](Cc2c[nH]c3ccccc23)NC(=O)[C@H](CC(=O)O)NC(=O)[C@H](CCC(N)=O)NC(=O)[C@H](Cc2c[nH]c3ccccc23)NC(=O)[C@H]([C@@H](C)CC)NC1=O` [Compound 27] (Ac-ICIWQDWGEHRCEGE-NH2; disulfide 2-12), in series [1], the “Solubility, Condition 1 Acetate pH 4” value is recorded as “− (denotes lack of solubility at the given condition, as UV absorbance at 340 nm exceeds 0.1 AU and/or it is visibly turbid or contains particles.)”; the “Solubility, Condition 2 Acetate pH 5” value is “− (denotes lack of solubility at the given condition, as UV absorbance at 340 nm exceeds 0.1 AU and/or it is visibly turbid or contains particles.)”; the “Solubility, Condition 3 Phosphate pH 6” value is listed as “− (denotes lack of solubility at the given condition, as UV absorbance at 340 nm exceeds 0.1 AU and/or it is visibly turbid or contains particles.)”; the “Solubility, Condition 4 Phosphate pH 7” value is “+ (denotes solubility at the given condition, as determined by UV absorbance being less than 0.1 AU at 340 nm and the sample being clear when manually inspected.)”. The “Solubility, Condition 5 Phosphate pH 7.5” value in series [1] is “+ (denotes solubility at the given condition, as determined by UV absorbance being less than 0.1 AU at 340 nm and the sample being clear when manually inspected.)”. For the same molecule, in series [2], the half-inhibitory concentration (IC50) is less than 100 nM.

For the molecule `CC[C@H](C)[C@H](NC(=O)[C@H](C)NC(=O)[C@H](CO)NC(=O)CNC(=O)[C@H](CCC(=O)O)NC(C)=O)C(=O)N[C@H]1CSSC[C@@H](C(=O)N(C)CC(=O)N[C@@H](CCC(=O)O)C(=O)NCC(=O)N[C@@H](CCC(=O)O)C(N)=O)NC(=O)[C@H](CCCNC(=N)N)NC(=O)[C@H](Cc2c[nH]cn2)NC(=O)[C@H](CCC(=O)O)NC(=O)CNC(=O)[C@H](Cc2c[nH]c3ccccc23)NC(=O)[C@H](CC(=O)O)NC(=O)[C@H](CCC(N)=O)NC(=O)[C@H](Cc2c[nH]c3ccccc23)NC(=O)[C@H]([C@@H](C)CC)NC1=O` [Compound 44] (Ac-EGSAICIWQDWGEHRC[Sar]EGE-NH2; disulfide 6-16), in series [1], the “Solubility, Condition 1 Acetate pH 4” value was “− (denotes lack of solubility at the given condition, as UV absorbance at 340 nm exceeds 0.1 AU and/or it is visibly turbid or contains particles.)”; the “Solubility, Condition 2 Acetate pH 5” value is “− (denotes lack of solubility at the given condition, as UV absorbance at 340 nm exceeds 0.1 AU and/or it is visibly turbid or contains particles.)”; the “Solubility, Condition 3 Phosphate pH 6” value was “+ (denotes solubility at the given condition, as determined by UV absorbance being less than 0.1 AU at 340 nm and the sample being clear when manually inspected.)”; the “Solubility, Condition 4 Phosphate pH 7” value is “+ (denotes solubility at the given condition, as determined by UV absorbance being less than 0.1 AU at 340 nm and the sample being clear when manually inspected.)”. Besides, the “Solubility, Condition 5 Phosphate pH 7.5” value in series [1] is “+ (denotes solubility at the given condition, as determined by UV absorbance being less than 0.1 AU at 340 nm and the sample being clear when manually inspected.)”. The IC50 in series [2] was less than 250 nM.

Values taken from US20220306695A1, “COMPSTATIN ANALOGUES AND THEIR MEDICAL USES” (priority 2019, published 2022).
